Measurements as given in US9469611B2, “Use of dihydroimidazolones for the treatment of dogs” (BOEHRINGER INGELHEIM VETMEDICA GMBH, priority 2002, dated 2016).
Several values for one entry are separate records, joined by “and”; a condition that tells them apart may be missing. Identical values can stand only once. Like-named read-outs stand apart in the source and are kept apart here. Marks after values point to notes of the source that are not given here.

Legend:
[1] = tested on: dogs with newly diagnosed idiopathic epilepsy; test: monotherapy in dogs with newly diagnosed idiopathic epilepsy (AWD 131-138 pilot study; retrospective phenobarbital, primidone)
[2] = plasma concentration of AWD 131-138 (HPLC/mass spectrometry); type: in vivo, dog; settings: for concentration at 12 h: 12 hours after application
Description: A pharmacokinetic study was performed at the beginning of treatment in 2 dogs with AWD 131-138 monotherapy and in 4 dogs with a combination therapy of AWD 131-138 and phenobarbital or primidone. All 6 dogs received 5 mg/kg bodyweight AWD 131-138. Blood was taken 3 times every 2 hours. […] The same method was used as a compliance control during the follow up examinations. Blood was taken two and twelve hours after oral administration of AWD 131-138.
In six dogs entering the pilot study with AWD 131-138 a pharmacokinetic study was performed. AWD 131-138 was measured in plasma samples two, four and six hours after application. The initial dosage of AWD 131-138 was 5 mg/kg bodyweight p.o. in all cases.

[3] = tested on: cloned human GABA receptor complexes; settings: cited from earlier work
[4] = tested on: benzodiazepine binding site of the GABAA receptor; settings: broad receptor screen; cited from earlier work
calcium channel = settings: cited from earlier work
[5] = monkeys; cited from earlier work
[6] = side effects: owner questionnaire and follow up examinations with blood work
[7] = self administration paradigm; cited from earlier work
benzodiazepine receptor = settings: co administration of flumazenil; cited from earlier work
[8] = tested on: dogs with chronic idiopathic epilepsy; test: add-on therapy in dogs with chronic idiopathic epilepsy not responding to phenobarbital or primidone; type: in vivo, dog
[9] = tested on: chemically induced seizure threshold; settings: dogs, cited from earlier work
[10] = grand mal seizures, baseline before monotherapy
[11] = grand mal seizures, monotherapy
[12] = median group value, baseline before monotherapy
[13] = median group value, monotherapy, asterisk = P<0.05 vs before
[14] = 12 newly diagnosed dogs, monotherapy
[15] = add-on, abnormalities already at the beginning of the study
[16] = grand mal seizures, add-on to phenobarbital or primidone
[17] = grand mal seizures, on phenobarbital or primidone before add-on
[18] = median, on phenobarbital/primidone before add-on

For `O=C1N=C(N2CCOCC2)CN1c1ccc(Cl)cc1` [AWD 131-138, 1-(4-chlorophenyl)-4-(4-morpholinyl)-2,5-dihydro-1H-imidazol-2-one], the “comparison of antiepileptic efficacy between monotherapy treatment groups” value ([1]; ANOVA) was “did not indicate any significant differences”, the “duration of the ictus before treatment, median” value [1, 10] was 3.0 min and the “duration of the ictus before treatment, time range” value [1, 10] was 0.5 to 10 min. The “duration of the ictus during treatment, median” value [1, 11] was 2.5 min, the “duration of the ictus during treatment, time range” value [1, 11] was 0.5 to 10 min and the “% reduction of seizures in responders” value ([1]; mean ± SEM, monotherapy) was 49.8 ± 11.3%. The “Seizure frequency before treatment, all dogs” value [1, 12] was 1.6 seizures/month, the “Seizure frequency before treatment, without nonresponders” value [1, 12] was 1.7 seizures/month and the “Seizure frequency during treatment, all dogs” value [1, 13] was 0.71 seizures/month. The “Seizure frequency during treatment, without nonresponders” value [1, 13] was 0.55* seizures/month, the “dogs that died or were euthanized in status epilepticus” value ([1]; monotherapy) was “One” and the “dogs with focal seizures instead of grand mal seizures during treatment” value ([1]; monotherapy) was “two”. For the same compound, the “dogs with reduced seizure number per cluster” value ([1]; monotherapy) was 4, the “number of dogs with decreased duration of the ictus” value ([1]; monotherapy) was “five” and the “number of dogs with shortened postictal phase” value ([1]; monotherapy) was “four”. For the same compound, the “owners reporting subjectively a decrease of seizure severity” value ([1]; monotherapy) was “nine of 12”, the “reduction of seizure number per cluster, mean” value ([1]; monotherapy) was 45.3% and the “dogs in which clusters no longer developed” value ([1]; monotherapy, dogs with clusters before treatment) was “One”. For the same compound, the “decrease of the duration of the ictus, mean” value ([1]; monotherapy, in the dogs with a decrease) was 38%, the “AWD 131-138 plasma concentration” value ([2]; 2 hours after 5 mg/kg p.o., AWD 131-138 monotherapy, individual dogs) was 720.0 ng/mL and 2579.2 ng/mL and the “AWD 131-138 plasma concentration” value ([2]; 2 hours after 5 mg/kg p.o., phenobarbital combination therapy, individual dogs) was 23.27 ng/mL and 1019.5 ng/mL. For the same compound, the “AWD 131-138 plasma concentration” value ([2]; 2 hours after 5 mg/kg p.o., primidone combination therapy, individual dogs) was 2392.3 ng/mL, the “AWD 131-138 plasma concentration” value ([2]; 4 hours after 5 mg/kg p.o., AWD 131-138 monotherapy, individual dogs) was 702.7 ng/mL and 1461.0 ng/mL and the “AWD 131-138 plasma concentration” value ([2]; 4 hours after 5 mg/kg p.o., phenobarbital combination therapy, individual dogs) was “Bld”. For the same compound, the “AWD 131-138 plasma concentration” value ([2]; 4 hours after 5 mg/kg p.o., primidone combination therapy, individual dogs) was 1021.5 ng/mL and 2438.7 ng/mL, the “AWD 131-138 plasma concentration” value ([2]; 6 hours after 5 mg/kg p.o., AWD 131-138 monotherapy, individual dogs) was 229.5 ng/mL and 709.0 ng/mL and the “AWD 131-138 plasma concentration” value ([2]; 6 hours after 5 mg/kg p.o., phenobarbital combination therapy, individual dogs) was “bld (bld (below limit of detection): <2 ng/mL)”. The “AWD 131-138 plasma concentration” value ([2]; 6 hours after 5 mg/kg p.o., primidone combination therapy, individual dogs) was 448.1 ng/mL and 1289.0 ng/mL, the concentration at 2 h ([2]; dog, plasma, oral, 5 mg/kg bodyweight, 2 hours after 5 mg/kg p.o., primidone combination therapy, individual dogs, read-out: AWD 131-138 plasma concentration) was 1520 ng/mL and the concentration at 4 h ([2]; dog, plasma, oral, 5 mg/kg bodyweight, 4 hours after 5 mg/kg p.o., phenobarbital combination therapy, individual dogs) was 174 ng/mL. The concentration at 6 h ([2]; dog, plasma, oral, 5 mg/kg bodyweight, 6 hours after 5 mg/kg p.o., phenobarbital combination therapy, individual dogs) was 19.5 ng/mL, the concentration at 2 h ([2]; dog, plasma, oral, 30 mg/kg, 2 hours after application, 30 mg/kg, non responder dog that died in status epilepticus, read-out: AWD 131-138 plasma concentration) was 4000 ng/mL and the concentration at 2 h ([2]; dog, plasma, oral, 40 mg/kg/day, 2 hours after application, 40 mg/kg per day, two dogs with ataxia on combined phenobarbital treatment, read-out: AWD 131-138 plasma concentration, range) was 5560 to 10900 ng/mL. It also gave a concentration at 2 h ([2]; dog, plasma, oral, chronic epilepsy add on, 2 hours after application, 10-15 mg/kg twice a day, seventeen dogs, read-out: AWD 131-138 plasma concentration, range) of 280 to 10600 ng/mL, a concentration at 2 h ([2]; dog, plasma, oral, chronic epilepsy add on, 2 hours after application, read-out: AWD 131-138 plasma concentration, mean) of 3900 ng/mL and a concentration at 2 h ([2]; dog, plasma, oral, chronic epilepsy add on, 2 hours after application, read-out: AWD 131-138 plasma concentration, median) of 2990 ng/mL. For the same compound, the concentration at 12 h ([2]; dog, plasma, oral, chronic epilepsy add on, read-out: AWD 131-138 plasma concentration, mean) was 644 ng/mL, the concentration at 12 h ([2]; dog, plasma, oral, chronic epilepsy add on, read-out: AWD 131-138 plasma concentration, median) was 179 ng/mL and the concentration at 12 h ([2]; dog, plasma, oral, chronic epilepsy add on, read-out: AWD 131-138 plasma concentration, range) was 7.57 to 5870 ng/mL. It also gave a concentration at 2 h ([2]; dog, plasma, oral, newly diagnosed dogs, three weeks of treatment, 2 hours after oral application, 10-20 mg/kg twice a day, eleven cases, read-out: AWD 131-138 plasma concentration, range) of 53.3 to 8620 ng/mL, a concentration at 12 h ([2]; dog, plasma, oral, newly diagnosed dogs, three weeks, twelve dogs, read-out: AWD 131-138 plasma concentration, range) of 5.4 to 1140 ng/mL and a concentration at 12 h ([2]; dog, plasma, oral, newly diagnosed dogs, three weeks, read-out: AWD 131-138 plasma concentration, mean) of 378 ng/mL. For the same compound, the concentration at 12 h ([2]; dog, plasma, oral, newly diagnosed dogs, three weeks, read-out: AWD 131-138 plasma concentration, median) was 218 ng/mL, the concentration at 2 h ([2]; dog, plasma, po, newly diagnosed dogs, three weeks, 2 hours after oral application, read-out: AWD 131-138 plasma concentration, mean) was 3360 ng/mL and the concentration at 2 h ([2]; dog, plasma, po, newly diagnosed dogs, three weeks, 2 hours after oral application, read-out: AWD 131-138 plasma concentration, median) was 2580 ng/mL. The “mode of action at the benzodiazepine receptor” value ([3]; different cloned human GABA receptor complexes) was “low affinity partial agonist at the benzodiazepine receptor without subtype selectivity”, the maximal stimulation ([3]; of the effect of diazepam) was 20% and the “affinity for the benzodiazepine binding site” value [4] was “very low affinity”. The “calcium channel blocking effect” value (calcium channel) was “weak calcium channel blocking effect”, the “identified as benzodiazepine like” value [5] was “did not identify AWD 131-138 as benzodiazepine like” and the sedation [6, 14] was “no sedation occurred”. For the same compound, the tolerability [6, 14] was “exceptionally well tolerated”, the “hematology and blood chemistry” value ([6]; 12 newly diagnosed dogs, monotherapy, follow up) was “No abnormalities were found” and the “polyphagia, cases” value ([6]; 12 newly diagnosed dogs, monotherapy, in 4 dogs only at the beginning) was 7 (58%). The tolerability ([6]; 17 dogs with chronic epilepsy, add-on) was “very well tolerated”, the “hematology (red, white and differential cell count)” value ([6]; 17 dogs with chronic epilepsy, add-on, follow up) was “No abnormalities were found” and the “polyphagia, cases” value ([6]; 17 dogs with chronic epilepsy, add-on, in 7 dogs only at the beginning) was 10 (59%). For the same compound, the “elevation of liver enzymes (ALT, GLDH and AP)” value ([6]; AWD 131-138 monotherapy) was “not observed”, the “dogs with ataxia in the hind limbs and apathy 2 4 hours after application” value ([6]; add-on, 40 mg/kg per day, combined phenobarbital with serum concentrations 56.6 58.9 μg/mL) was “Two” and the “dogs with elevation of ALT” value [6, 15] was 1. The “dogs with elevation of AP” value [6, 15] was 6, the “dogs with elevation of GLDH” value [6, 15] was 3 and the substitution for cocaine [7] was “did not substitute for cocaine”. The “antagonism of anticonvulsive activity by flumazenil” value (benzodiazepine receptor) was “partly antagonised”, the “antagonism of anxiolytic activity by flumazenil” value (benzodiazepine receptor) was “fully antagonised” and the “comparison of antiepileptic efficacy between the two add on treatment schedules” value ([8]; Fisher's exact test) was “did not indicate any significant difference”. The “decrease of number of seizures per cluster, mean” value ([8]; add-on) was 39.5%, the “dogs in which clusters did not occur anymore” value ([8]; add-on) was “three” and the “dogs in which focal seizures replaced grand mal seizures partially” value ([8]; add-on) was “nine”. The “dogs with a seizure reduction under 50%” value ([8]; add-on) was 4, the “dogs with decreased number of seizures per cluster” value ([8]; add-on) was 4 and the “dogs with worsening of seizure severity reported by owner” value ([8]; add-on) was “One”. The “number of dogs with decreased duration of the ictus” value ([8]; add-on) was 3, the “number of dogs with shortened postictal phase” value ([8]; add-on) was “ten” and the “owners reporting subjectively a decrease of seizure severity” value ([8]; add-on) was “eight of seventeen”. The “postictal phase during treatment, mean” value ([8]; add-on) was 5.5 h, the “dogs that died or were euthanized in status epilepticus” value ([8]; add-on to phenobarbital or primidone) was “Nine” and the “shortening of the postictal phase, mean” value ([8]; add-on, in the dogs with shortening) was 54%. The “duration of the ictus during treatment, median” value [8, 16] was 2.0 min, the “duration of the ictus during treatment, time range” value [8, 16] was 0.5 to 5 min and the “duration of the ictus before treatment, median” value [8, 17] was 2.0 min. The “duration of the ictus before treatment, time range” value [8, 17] was 0.5 to 10 min, the “% reduction of seizures in responders” value ([8]; mean ± SEM, add-on to phenobarbital/primidone) was 47.2 ± 8.8% and the “Seizure frequency during treatment, all dogs” value ([8]; median, add-on to phenobarbital/primidone) was 2.0 seizures/month. For the same compound, the “Seizure frequency during treatment, without nonresponders” value ([8]; median, add-on to phenobarbital/primidone, asterisk = P<0.05) was 1.1* seizures/month, the “Seizure frequency before treatment, all dogs” value [8, 18] was 1.9 seizures/month and the “Seizure frequency before treatment, without nonresponders” value [8, 18] was 2.4 seizures/month. The “increase of seizure threshold (PTZ convulsive threshold)” value ([9]; 20 mg/kg p.o.) was 39% and the “increase of seizure threshold (PTZ convulsive threshold)” value ([9]; 40 mg/kg p.o.) was 118%.
